These results are taken from patent publication US9309243B2, “Imidazopyridine derivatives as modulators of TNF activity” (UCB Biopharma SPRL, priority 2012, dated 2016).

The structures appear in SMILES notation.

The molecule `Cc1nc2cc(F)c(-c3cnc(C4(O)COC4)nc3)cn2c1Cc1ccccc1OC(F)F` [Example 322, 3-[5-(3-{[2-(Difluoromethoxy)phenyl]methyl}-7-fluoro-2-methylimidazo[1,2-a]pyridin-6-yl)pyrimidin-2-yl]oxetan-3-ol] gave a melting point of 143 to 144 °C.
